The target in one data set is T1, XIAP BIR2 (Homo sapiens, UniProt P98170).
T1 construct: 6×histidine-tagged BIR2 (amino acids 124–240) or BIR3 (amino acids 241–356) domain of the XIAP protein
As to the kind of experiment: BIR2 TR-FRET assay (displacement of AVPI-derived peptide). Format: binding. As to the method: (§1) Time-resolved fluorescence resonance energy transfer (TR-FRET) signals were measured 1 h later at room temperature. Compound potency was assessed at ten serially diluted concentrations. The percentage of inhibition at each concentration was determined to generate an IC50 value for each compound.
A general note: Time-resolved FRET reads energy transfer from a long-lived donor to a nearby acceptor.

A further data set has as its target T2, XIAP BIR3 (Homo sapiens, UniProt P98170).
T2 construct: 6×histidine-tagged BIR2 (amino acids 124–240) or BIR3 (amino acids 241–356) domain of the XIAP protein
As to the kind of experiment: BIR3 TR-FRET assay (displacement of AVPI-derived peptide). Format: binding. As to the method:
as §1

Data set [1] concerns the molecule itself. As to the kind of experiment: crystal structure; apo BIR2 crystals, sitting drop, 1.7-1.9 M ammonium sulfate, 125 mM bis-tris propane pH 7.0, room temperature; two molecules (A and B).
Data set [2] deals with 6×histidine-tagged BIR2 (amino acids 124–240) domain of the XIAP protein (UniProt P98170). The experiment in a line: AlphaScreen or HTRF; TR-FRET competition: 10 nM 6xHis BIR2 or BIR3 domain with 20 nM …-(epsilon-biotin)-OH; europium streptavidin (1.5 nM) and allophycocyanin anti-histidine antibody (15 nM); 50 mM Tris-HCl pH 7.5, 100 mM NaCl, 1 mM DTT, 0.1 mg/ml BSA; 45 min at 310 K, read 1 h later at room temperature; ten concentrations; Ki from IC50 by Cheng-Prusoff. (In general: Bead proximity is the source of the signal in Alpha formats.)
6×histidine-tagged BIR2 (amino acids 124–240) domain of the XIAP protein, sequence (P98170 124-240): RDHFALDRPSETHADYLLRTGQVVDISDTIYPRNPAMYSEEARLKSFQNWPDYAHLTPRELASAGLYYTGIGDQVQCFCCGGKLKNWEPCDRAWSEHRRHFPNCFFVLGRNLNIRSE

The mark [3] stands for this setting: FRET-based displacement of AVPI-derived peptide from 6xHis BIR2 (124-240), Ki from IC50 by Cheng-Prusoff, read-out: BIR2 K i.
Setting [4] is: FRET-based displacement of AVPI-derived peptide from 6xHis BIR3 (241-356), Ki from IC50 by Cheng-Prusoff, read-out: BIR3 K i.

Like-named read-outs stand apart in the source and are kept apart here. Where a SMILES comes first, the peptide text is derived from it. Some results are limits rather than exact numbers.

T1 sequence (P98170 124-240): as above
T2 sequence (P98170 241-356): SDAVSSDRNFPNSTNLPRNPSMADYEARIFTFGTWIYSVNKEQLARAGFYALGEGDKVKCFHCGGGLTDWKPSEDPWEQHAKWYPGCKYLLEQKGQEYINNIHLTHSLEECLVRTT

As for `CC[C@H](C)[C@H](NC(=O)[C@@H]1CCCN1C(=O)[C@H](CCSC)NC(=O)[C@@H](N)CO)C(=O)O` [SMPI] (H-SMPI-OH), the values for the Ki on XIAP BIR2 (setting [3]) and at XIAP BIR3 (setting [4]) were 34 µM and 12.5 µM, respectively.

As for `CSCC[C@H](NC(=O)[C@H](C)N)C(=O)N[C@@H](CCCNC(=N)N)C(=O)N[C@H](C(=O)O)C(C)C` [AMRV] (H-AMRV-OH), the Ki turned out to be 2.41 µM at XIAP BIR2 (setting [3]) and 32.9 µM at XIAP BIR3 (setting [4]).

For the molecule `C[C@H](N)C(=O)N[C@@H](CCCNC(=N)N)C(=O)N1CCC[C@H]1C(=O)N[C@@H](CCCNC(=N)N)C(=O)O` [ARPR] (H-ARPR-OH), the Ki on XIAP BIR2 (setting [3]) is above 53 µM. As for `CC[C@H](C)[C@H](NC(=O)[C@H](CCCNC(=N)N)NC(=O)[C@H](CCSC)NC(=O)[C@H](C)N)C(=O)O` [AMRI] (H-AMRI-OH), the Ki on XIAP BIR2 (setting [3]) came to 3.52 µM; at XIAP BIR3 (setting [4]) it was 5.2 µM. Regarding `CSCC[C@H](NC(=O)[C@@H](N)CO)C(=O)N[C@@H](CCCNC(=N)N)C(=O)N[C@H](C(=O)O)C(C)C` [SMRV] (H-SMRV-OH), the Ki on XIAP BIR2 (setting [3]) is 12.3 µM; on XIAP BIR3 (setting [4]), above 47 µM. As for `CC(C)[C@H](NC(=O)[C@@H](NC(=O)[C@@H](NC(=O)[C@H](C)N)C(C)C)C(C)C)C(=O)O` [AVVV] (H-AVVV-OH), on XIAP BIR2 (setting [3]), the Ki was 2.54 µM. On to `C[C@H](N)C(=O)N[C@H](C(=O)N[C@@H](C)C(=O)N[C@@H](C)C(=O)O)[C@@H](C)O` [ATAA] (H-ATAA-OH), for which the Ki on XIAP BIR2 (setting [3]) was 1.7 µM; at XIAP BIR3 (setting [4]), above 47 µM. The “activity against BIR3 (in words)” value at XIAP BIR3 (TR-FRET assay) is “inactive”. `CC(C)[C@H](NC(=O)[C@H](C)NC(=O)[C@@H](NC(=O)[C@H](C)N)C(C)C)C(=O)O` [AVAV] (H-AVAV-OH): the results for the Ki at XIAP BIR2 (setting [3]) and on XIAP BIR3 (setting [4]) were 1.87 µM and 26.1 µM, respectively. In the same order, the values of `CC[C@H](C)[C@H](NC(=O)[C@@H]1CCCN1C(=O)[C@@H](NC(=O)[C@H](C)N)[C@@H](C)CC)C(=O)O` [AIPI] (H-AIPI-OH) are 3.11 µM and 0.08 µM. As to `CC[C@H](C)[C@H](NC(=O)[C@H](C)N)C(=O)N[C@@H](C)C(=O)N[C@H](C(=O)O)C(C)C` [AIAV] (H-AIAV-OH), the Ki on XIAP BIR2 worked out at 1.87 µM; at XIAP BIR3, 28.2 µM.

For `CC(C)[C@H](NC(=O)[C@H](C)NC(=O)[C@@H](NC(=O)[C@H](C)N)[C@@H](C)O)C(=O)O` [ATAV] (H-ATAV-OH), the results for the Ki on XIAP BIR2 (setting [3]) and on XIAP BIR3 (setting [4]) were 2.17 µM and 32.3 µM, respectively.

B1: XIAP BIR2(152–236;C202A,C213G) (domain or fragment, human)
chain: GTIYPRNPAMYSEEARLKSFQNWPDYAHLTPRELASAGLYYTGIGDQVQCFACGGKLKNWEPGDRAWSEHRRHFPNCFFVLGRNLN
notes: printed as hBIR2; Two molecules (A and B) in the crystal; also called hBIR2(152–236;C202A,C213G); BIR2 domain of XIAP; source: E. coli Rosetta2(DE3)pLysS, purified (Ni-NTA, TEV cleavage, Superdex 75); not shown: His6, N-terminal, cleaved
Consider B1, for which the binding result in data set [1] is given as “binds”. As to SMRV, in data set [2], the Ki came out at 12.2 µM.

The values are drawn from paper PMC3760131 (Acta Crystallographica Section D: Biological Crystallography, 2013).
